These results are taken from a melting point compilation (Tetko et al.; mined from patent text by program, amines drawn as free bases though some values may be those of a salt).

Bounds are passed on as bounds.

Broadly, the melting point is the temperature of the solid-liquid transition. Compound `O=C(c1ccc(Cl)c(Cl)c1)c1ccc(O)c(Cl)c1Cl` had a melting point of 179 to 180 °C.

On to `O=C(O)c1cccnc1NCc1ccccc1`, for which the melting point came to 148 °C.

Turning to `CCP(=O)(CC)Cc1ccc(NC(=O)C2=Cc3cc(-c4ccc(C)cc4)ccc3OCC2)cc1`, the melting point was 240 to 241 °C.

The compound `COc1cc(NS(C)(=O)=O)cc(OC)c1-c1ccc(C[C@H](NC(=O)c2c(Cl)cccc2Cl)C(=O)O)cc1` yielded a melting point of 154 to 155 °C.

`OCc1cc2ccccc2[nH]1`: the melting point lay in the range of 73.5 to 74.4 °C.

The compound `CCOC(=O)C(=C(c1ccc(F)cc1)c1ccc(F)cc1)c1nnnn1C` displayed a melting point of 144 to 145 °C.

Consider `CCOC(=O)c1c(C)cc2cnc(C)nc2c1C`, for which the melting point lay within 84 to 86 °C.

`OCc1nn(-c2ccccc2)c2c1CCC2` came in with a melting point of 94 to 95 °C.

With `CCCCCCCCCCCCN1C(=O)CC(c2cc(C(C)(C)C)c(O)c(C(C)(C)C)c2)C1=O` (centres undefined), the melting point lay within 66 to 70 °C.

Take `CC(=NC1CCCCC1)Nc1ccccc1C`: the melting point lay in the range of 130 to 131 °C.

Turning to `CN1CCCC(c2ccccc2)c2[nH]c3ccccc3c2CC1` (centres undefined), the melting point lay in the range of 117 to 119 °C.

On to `COCC(O)Cc1ccc(-c2ccc3cc(C(=O)O)ccc3c2)cc1C12CC3CC(CC(C3)C1)C2` (centres undefined), for which the melting point was 240 to 242 °C.

Regarding `CCCCN(CCCC)c1ccc(C=Cc2ccc(C(C#N)=C(C#N)C#N)s2)c(OC)c1`, the melting point fell in the range of 189 to 192 °C.

Compound `CC1CC(=O)NN=C1c1ccc(NC(=O)OCC2CC2)cc1` (centres undefined) showed a melting point of 240 to 241 °C.

With `Cc1c(/C=C2\COc3ccccc3C2=O)ncn1C(c1ccccc1)(c1ccccc1)c1ccccc1`, the melting point was 231 to 233 °C.

The compound `Nc1ccc(-c2cc3c(N4CCc5ccccc54)ncnc3[nH]2)cc1` displayed a melting point of more than 300 °C.

In turn, `Cc1c(Br)c2c(c(C)c1NC(=O)CC(C)(C)C)C(c1ccc(C(C)C)cc1)CS2` (centres undefined) registered a melting point of 207 to 208 °C.

As to `CCOC(=O)Nc1ccc2oc(CCC(F)(F)F)cc2c1`, the melting point was 108 °C.

`O=C(O)C(=O)CC(=O)c1cc(C(=O)CC(=O)C(=O)O)n(Cc2ccc(F)cc2)n1` registered a melting point of 215 to 217 °C.

Take `O=C(Nc1ccc2c(c1)CCC2)c1ccccc1C(c1ccc(O)cc1)c1ccc(O)cc1`: the melting point was in the range of 220 to 223 °C.

`CC(C)(C#N)c1ccc(C(=O)c2cccs2)cc1` showed a melting point of 139 °C.

Consider `CC(C)c1nc(-c2ccccc2)nc(-c2ccc(F)cc2)c1C=O`, for which the melting point lay within 127 to 129 °C.

As for `CC(=O)N(Cc1nc(-c2ccccc2)c(-c2ccccc2)o1)c1cccc(OCC(=O)O)c1`, the melting point lay in the range of 75 to 80 °C.

With `CN(C)C1CCc2[nH]c3c(CO)cccc3c2C1` (centres undefined), the melting point was in the range of 227 to 230 °C.

Consider `CCc1cccc(N2C(=S)SCC2(O)CC)n1` (centres undefined), for which the melting point stood at 84 °C.

In the case of `CCCc1nc2c(N)nc3ccccc3c2n1CCCC(C)N(OC)C(=O)Nc1ccccc1` (centres undefined), the melting point lay within 140 to 142 °C.

With `Fc1cccc2c1CNC2`, the melting point fell in the range of 46.5 to 48.5 °C.

For the compound `CC(C)(C)NC(=O)c1nn(-c2c(F)cc(F)cc2F)c2c1C1CCC2C1` (centres undefined), the melting point lay in the range of 142 to 146 °C.

Turning to `ON=CNc1ccc(N2CCOCC2)nc1`, the melting point lay within 172 to 174 °C.

Regarding `COc1ccc(S(=O)(=O)C2(CCCCC#Cc3ccc(Cl)cc3)SC(=O)NC2=O)cc1` (centres undefined), the melting point lay in the range of 145 to 148 °C.

Take `CSc1cc(C)nc(SC)c1NC(=O)CCCCCCCSc1nc2ccccc2s1`: the melting point lay in the range of 104 to 108 °C.

Turning to `Cn1nc(-c2ccc(OCCCCl)cc2)ccc1=O`, the melting point was 186 to 187 °C.

`CNC(=O)CN1CCc2ccc(Nc3ncc(Cl)c(Nc4ccc(N5CCOCC5)cc4OC)n3)cc2CC1` displayed a melting point of 169 to 176 °C.

For `CCOC(=O)c1cc(=O)c2c(OCC(O)COc3cccc(C)c3)cccc2o1` (centres undefined), the melting point fell in the range of 72 to 74 °C.

The compound `COc1ccc2[nH]c3c(c2c1)CCC(C(=O)O)C3` (centres undefined) yielded a melting point of 226 to 228 °C.

As for `COCCn1nc(-c2ccc(Cl)cc2)c2ccccc2c1=O`, the melting point fell in the range of 116 to 118 °C.

`Cc1[nH]c(C(=O)C(Cl)(Cl)Cl)c2c1-c1ccc(Cl)cc1C(c1ccccc1F)=NC2` came in with a melting point of 222 to 225 °C.

`O=C(O)CSC(CCCCNS(=O)(=O)c1ccc(Cl)cc1)CCCc1cccnc1` (centres undefined) registered a melting point of 78 to 80 °C.

In the case of `COc1ccc(Cc2ncc(C(=O)O)c3cc(OC)c(OC)cc23)cc1OC`, the melting point lay in the range of 235 to 236 °C.

As to `Cc1cccc(Cl)c1NC1=NCCN1`, the melting point was in the range of 112 to 114 °C.

`CCCCN1CCC(COC(=O)c2cc(Cl)c(N)cc2OC)C(O)C1` (centres undefined) showed a melting point of 121 °C.

On to `Cc1cc([N+](=O)[O-])ccc1C(=O)N=CN(C)C`, for which the melting point was 118 to 121 °C.

As for `Nc1ncccc1CNC(=O)C1Cc2ccccc2N1S(=O)(=O)c1ccc(-c2cccc(C(F)(F)F)c2)cc1` (centres undefined), the melting point worked out at 94 °C.

`Fc1ccccc1COC1COC(c2ccco2)OC1` (centres undefined): the melting point fell in the range of 50.5 to 52 °C.

In the case of `Nc1nc(COc2ccccc2)nc2nccnc12`, the melting point is 202 to 204 °C.

Compound `CCCCCCCCCCCC(CC(O)C(C(=O)OC(C)(C)C)S(=O)c1ccc(C)cc1)OC1CCCCO1` (centres undefined) returned a melting point of 97 to 98 °C.

Consider `CCCOc1ccc(/C=C/C(=O)O)cc1-c1nc2c(c(C)nn2CCC)c(=O)[nH]1`, for which the melting point was 231 to 232 °C.

With `CCCCc1ccc(NC(=O)CCc2ccccc2)c(=O)n1CC(=O)OC`, the melting point was 84 to 85 °C.

In the case of `CCC1=CN2CC(c3ccc(Br)cc3)N=C2S1` (centres undefined), the melting point turned out to be 74.8 °C.

For `CCOC(=O)c1ccc(OCC2CN(c3ccc(S(C)(=O)=O)nn3)CCO2)cc1` (centres undefined), the melting point amounted to 197 °C.

`Nc1c(-c2ccc(Cl)cc2)nnn1-c1ccc(C(F)(F)F)cc1F` registered a melting point of 170 °C.

In turn, `O=C(OCCl)c1c(Cl)cccc1Cl` registered a melting point of 70 to 72 °C.

On to `CCN(C(=O)n1occc1=O)c1ccc(Cl)cc1`, for which the melting point worked out at 149 °C.

For the compound `c1ccc(-c2nnc3cc(-c4cccnc4)c(OCc4ccccn4)nn23)cc1`, the melting point stood at 206 °C.

The compound `CCCC(=O)c1cnc2c(CO)cccc2c1Nc1ccccc1C` showed a melting point of 148 to 150 °C.

For `CS(=O)(=O)c1ccc(C2=C(c3ccc(-c4ccsc4)cc3)C(=O)OC2)cc1`, the melting point is 220 to 222 °C.

As to `Cc1c(N2C[C@@H](N)C(C)(C)C2)c(F)c(N)c2c(=O)c(C(=O)O)cn(C3CC3)c12`, the melting point lay within 192 to 193 °C.

`CC(=O)OC1CCC2(COS(=O)(=O)c3ccc(C)cc3)C(=CCC3C2CCC2(C)C(OC(C)=O)CCC32)C1` (centres undefined): the melting point was 135 to 137 °C.

With `Cc1ccnc(-c2cncc(OC3SCC(O)C(O)C3O)c2)c1` (centres undefined), the melting point was 166 °C.

For `O=C(O)CNC(=O)COc1c(F)cc(CSCCNS(=O)(=O)c2ccc(Cl)cc2)cc1F`, the melting point amounted to 140 °C.

Compound `Cc1cc(-c2ccc(NS(C)(=O)=O)cc2)cc2ccc(=O)[nH]c12` displayed a melting point of 340 to 343 °C.

Take `Cc1ccc(Nn2c(-c3ccccc3)c(C)[nH]c2=S)cc1Cl`: the melting point amounted to 190 °C.

In turn, `O=C(N[C@H]1CC[C@H](CCN2CCN(c3nccc4ccoc34)CC2)CC1)C1CCOCC1` returned a melting point of 211 °C.

In turn, `CCCCCSC1=C(SCCCCC)SC(=C2SC3=C(CN(S(=O)(=O)c4ccc(C)cc4)C3)S2)S1` displayed a melting point of 136 to 137 °C.

As to `COc1cccc2c1CC(NC(C)=O)CC2` (centres undefined), the melting point is 156 to 157 °C.

On to `CCCCCCCCCCCCCCCCC(=O)Nc1ccn(C2OC(CO)C(O)C2O)c(=O)n1` (centres undefined), for which the melting point is 144 to 147 °C.

Consider `ClC(c1ccccc1)c1ccc(C2CCCCC2)cc1` (centres undefined), for which the melting point turned out to be 75 °C.

`CCCOc1cc(C)c(C=CC(C)=CC=CC(C)=CC(=O)OCC)c(C)c1C` showed a melting point of 200 to 201 °C.

For the compound `CCC(=O)Nc1cccc(-c2ccnc3c(C(=O)c4ccco4)cnn23)c1`, the melting point is 185 to 186 °C.

Compound `CN(CCCc1ccccc1)[C@H]1CC[C@H](c2ccc3[nH]c(=O)oc3c2)CC1` had a melting point of 58 to 62 °C.

On to `CC(=NOCC(N)=O)c1ccc(Cl)cc1`, for which the melting point was in the range of 103 to 104 °C.

For `C=CCOc1cccc2c1C(=O)OC2=O`, the melting point is 115 to 117 °C.

`COC(=O)Cc1cccc(NC(=O)NCC(=O)N2[C@@H](C(=O)N3CCCC3)C[C@H](S(=O)(=O)c3ccccc3)[C@H]2c2ccccc2F)c1` (racemic) yielded a melting point of 156 °C.

`CC(Cc1sc(Br)cc1Cl)NC(=O)c1cn(C)nc1C(F)F` (centres undefined) had a melting point of 157 to 158 °C.

Turning to `CCOC(=O)c1c(OCC)nsc1NC(=O)Oc1ccccc1`, the melting point was 130 °C.

As for `O=c1[nH]c2ncc(-c3ccc(-n4ccnn4)cc3)nc2n1CC1CCCCC1`, the melting point lay in the range of 276 to 278 °C.

The compound `CP1(=O)c2ccccc2CN1c1cccc(C(F)(F)F)c1` (centres undefined) showed a melting point of 161 to 163 °C.

The compound `CCN(CC)C(=O)COc1nc2cc(OC)cc(OC)c2cc1-c1ccc(OC)cc1` yielded a melting point of 146 to 147 °C.

In turn, `CCCc1c(OCCCCCOc2ccc(OCCCC(=O)O)cc2CCC(=O)O)ccc2c1OCCC2=O` gave a melting point of 119 to 124 °C.

Consider `C[C@@H](n1cnc2c(cnn2-c2ccc(Cl)cc2)c1=O)[C@](O)(Cn1cncn1)c1ccc(F)cc1F`, for which the melting point fell in the range of 237 to 238 °C.

`O=C1CN(SC(Cl)(Cl)Cl)C(=O)N1SC(Cl)(Cl)Cl` gave a melting point of 142 °C.

Turning to `COC(=O)c1ccc2c(c1)CN(C(=O)c1ccc(-c3ccccc3)cc1)C2`, the melting point is 172 to 180 °C.

Take `CCOC(=O)C1=C(C)NC(=O)N(C(=O)OC(C)C)C1c1cccc(Cl)c1Cl` (centres undefined): the melting point was in the range of 139 to 140 °C.

As to `O=[N+]([O-])c1ccc(-c2ccc(OCCCCCCO)cc2)cc1`, the melting point lay within 117 to 119 °C.

`CCN(C(=O)NC)c1ccc(Cl)nc1`: the melting point lay in the range of 135 to 136 °C.

For `C=CCOc1cc(F)nc(N)n1`, the melting point lay within 62 to 66 °C.

In the case of `N#Cc1cccc(C2=Nc3ccc(C=Cc4ccccc4)cc3NC(=O)C2)c1`, the melting point fell in the range of 185 to 188 °C.

`CNc1nc(OC(F)F)cc(OC(F)F)n1`: the melting point was in the range of 54 to 55 °C.

In turn, `COCCOc1ccc(O)c(C(=O)O)c1` displayed a melting point of 115 to 116 °C.
